In patent publication US8227620B2, “Pharmaceutical compounds” (Neuroscienze Pharmaness S.C. A.R.L., priority 2004, dated 2012):
“Also recorded” adds a separate entry of the source.

Test system: rat intestinal motility
Assay: Intestinal motility, Upper Gut Transit Test
Assay type: in vivo
Details: for antagonism of the constipating effect of the CB1 agonist WIN 55,212-2 / effect on the intestinal transit rate / intestinal portion run by the marker relative to the length run after physiological solution with Tween 80: i.p.; for intestinal portion run by the marker relative to the length run after physiological solution with Tween 80: compound alone
Protocol: To further evaluate the activity in vivo of the compounds (I) object of the present invention, functional tests were carried out to evaluate the effect of said compounds on the rat intestinal motility. It was indeed shown the involvement of the cannabinoidergic CB1 receptors in the intestinal motility regulation in rat (R. G. Pertwee et al; Br. J. Pharmacol.; 1996, 118, 2199-2205). In particular, the CB1 receptor agonists slacken the gastrointestinal motility; antagonist compounds of the same receptors have instead a prokinetic effect on the gastrointestinal transit (G. Colombo et al.; Eur. J. Pharmacol.; 1998, 344, 67-69; M. A. Casu et al.; Eur. J. Pharmacol.; 2003, 459, 97-105).
The evaluation of the constipating or prokinetic effect of the compounds was carried out by the Upper Gut Transit Test method on the basis of the procedure defined and ratified by Y. Nagakura et al.; Eur. J. Pharmacol.; 1996, 311, 67-72. The method, which allows to measure the motility of the stomach and of the first intestine tract (small or little intestine), implies: • the administration of the compound to be tested by i.p. route; • the administration of carmine red (marker not directly absorbable from the stomach) by intragastric route through a metal probe, after 20 minutes from the administration of the compound to be tested; • the rat sacrifice by cervical dislocation after a pre-fixed time (30 minutes) starting from the administration time; • the intestine explant from pylorus to the ileo-cecal valve; • the determination of the intestinal part crossed by the marker; • the data processing to determine the percentage of crossed part with respect to the total length of the small intestine.
With respect to the control (physiological solution or carrier wherein the compounds to be tested were solubilized or dispersed), the administration of CB1 agonist compounds implies a reduction of the intestinal transit percentage; an opposite effect is noticed in case of antagonist compounds. The latter are therefore capable to cancel the constipating effect of CB1 agonist compounds.
Each test was repeated on ten animals; the results reported in the Examples are the average of the results obtained with ten animals.

Row | Molecule | length run by the marker relative to physiological solution, WIN 55,212-2 preceded by the compound (WIN 55,212-2 0.5 mg/kg preceded by compound 1.0 mg/kg) | antagonism of the constipating effect of the CB1 agonist WIN 55,212-2 | effect on the intestinal transit rate | intestinal portion run by the marker relative to the length run after physiological solution with Tween 80 (0.5 mg of compound/kg) [times] | intestinal portion run by the marker relative to the length run after physiological solution with Tween 80 (1.0 mg of compound/kg) [times] | length run by the marker relative to physiological solution, WIN 55,212-2 preceded by the compound (WIN 55,212-2 0.5 mg/kg preceded by compound 0.5 mg/kg)
1 | Cc1c(C(=O)NN2CCCCC2)nn(-c2ccc(Cl)cc2Cl)c1-c1ccc(Cl)s1 [Example 3.1b, N-piperidinyl-5-(5-Chloro-thiophen-2-yl)-1-(2′,4′-dichloro-phenyl)-4-methyl-1H-pyrazol-3-carboxamide] | the same length | capable to antagonize the effect of a CB1 agonist; also recorded: capable to antagonize the constipating effect of the CB1 agonist WIN 55,212-2 | increase the intestinal transit rate | 1.57 | 1.76 | 
2 | N-pyrrolidinyl-5-(5-Chloro-thiophen-2-yl)-1-(2,4′-dichloro-phenyl)-4-methyl-1H-pyrazol-3-carboxamide [Example 3.1d] |  | capable to antagonize the effect of a CB1 agonist | increase the intestinal transit rate | 1.61 | 1.74 | the same length
